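Compound exposure: 48 hours, 5 concentrations, 96-well plates. GI50 is the concentration that inhibits growth by half.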 Active and inactive are the calls of the source. No stated cut-off is given here; in the data, active = GI50 up to about 1.1 µM and inactive = higher.
How the values were obtained:
Experiment in all cases: NCI tumour cell line growth inhibition, 48 h
[1] = tested on: 786-0
[2] = tested on: A498
[3] = tested on: A549
[4] = tested on: ACHN
[5] = tested on: CAKI-1
[6] = tested on: CCRF-CEM
[7] = tested on: COLO 205
[8] = tested on: DLD-1
[9] = tested on: DMS-273
[10] = tested on: EKVX
[11] = tested on: HCC 2998
[12] = tested on: HCT-116
[13] = tested on: HCT-15
[14] = tested on: HL-60
[15] = tested on: HOP-18
[16] = tested on: HOP-62
[17] = tested on: HT-29
[18] = tested on: IGROV-1
[19] = tested on: K562
[20] = tested on: KM-20L2
[21] = tested on: KM12
[22] = tested on: LOX IMVI
[23] = tested on: LXFL 529
[24] = tested on: M14
[25] = tested on: M19-MEL
[26] = tested on: MOLT-4
[27] = tested on: Malme-3M
[28] = tested on: NCI-H226
[29] = tested on: NCI-H23
[30] = tested on: NCI-H460
[31] = tested on: NCI-H522
[32] = tested on: OVCAR-3
[33] = tested on: OVCAR-4
[34] = tested on: OVCAR-5
[35] = tested on: OVCAR-8
[36] = tested on: RPMI-8226
[37] = tested on: RXF 393
[38] = tested on: RXF 631
[39] = tested on: SF-268
[40] = tested on: SF-295
[41] = tested on: SF-539
[42] = tested on: SK-MEL-2
[43] = tested on: SK-MEL-5
[44] = tested on: SK-OV-3
[45] = tested on: SN12C
[46] = tested on: SNB-19
[47] = tested on: SNB-75
[48] = tested on: SNB-78
[49] = tested on: SW-620
[50] = tested on: TK-10
[51] = tested on: U-251
[52] = tested on: UACC-257
[53] = tested on: UACC-62
[54] = tested on: UO-31
[55] = tested on: XF498

In the case of COC(=O)C1=C(CO)C2C=CC1C2 (stereo not given), the GI50 [1] is reported as > 100 µM (inactive), the GI50 [2] is reported as > 100 µM (inactive) and the GI50 [3] is reported as > 100 µM (inactive). The GI50 [4] was > 100 µM (inactive), the GI50 [5] was > 100 µM (inactive) and the GI50 [6] was > 100 µM (inactive). For the same molecule, the GI50 [7] was > 100 µM (inactive), the GI50 [8] was > 100 µM (inactive) and the GI50 [9] was > 100 µM (inactive). For the same molecule, the GI50 [10] was > 100 µM (inactive), the GI50 [11] was > 100 µM (inactive) and the GI50 [12] was > 100 µM (inactive). For the same molecule, the GI50 [13] was > 100 µM, the GI50 [14] was > 100 µM (inactive) and the GI50 [15] was > 100 µM (inactive). For the same molecule, the GI50 [16] was > 100 µM (inactive), the GI50 [17] was > 100 µM (inactive) and the GI50 [18] was > 100 µM (inactive). The GI50 [19] was > 100 µM (inactive), the GI50 [20] was > 100 µM (inactive) and the GI50 [21] was > 100 µM (inactive). The GI50 [22] was > 100 µM (inactive), the GI50 [23] was > 100 µM (inactive) and the GI50 [24] was > 100 µM (inactive). For the same molecule, the GI50 [25] was > 100 µM (inactive), the GI50 [26] was > 100 µM (inactive) and the GI50 [27] was > 100 µM (inactive). For the same molecule, the GI50 [28] was > 100 µM (inactive), the GI50 [29] was > 100 µM (inactive) and the GI50 [30] was > 100 µM (inactive). For the same molecule, the GI50 [31] was > 100 µM (inactive), the GI50 [32] was > 100 µM (inactive) and the GI50 [33] was > 100 µM (inactive). For the same molecule, the GI50 [34] was > 100 µM (inactive), the GI50 [35] was > 100 µM (inactive) and the GI50 [36] was > 100 µM (inactive). For the same molecule, the GI50 [37] was > 100 µM (inactive), the GI50 [38] was > 100 µM (inactive) and the GI50 [39] was > 100 µM (inactive). The GI50 [40] was > 100 µM (inactive), the GI50 [41] was > 100 µM (inactive) and the GI50 [42] was > 100 µM (inactive). The GI50 [43] was > 100 µM (inactive), the GI50 [44] was > 100 µM (inactive) and the GI50 [45] was > 100 µM (inactive). For the same molecule, the GI50 [46] was > 100 µM (inactive), the GI50 [47] was > 100 µM (inactive) and the GI50 [48] was > 100 µM (inactive). The GI50 [49] was > 100 µM (inactive), the GI50 [50] was > 100 µM (inactive) and the GI50 [51] was > 100 µM (inactive). The GI50 [52] was > 100 µM (inactive), the GI50 [53] was > 100 µM (inactive) and the GI50 [54] was > 100 µM (inactive). The GI50 [55] was > 100 µM (inactive).

Reference: ChEMBL document CHEMBL1201862, “PubChem BioAssay data set” (2004)
